Data from patent US20230218624A1 (Urovant Sciences GmbH, priority 2017, published 2023).

Legend:
men and women with OAB = assay: Phase 2b efficacy study in men and women with OAB; assay type: in vivo, human; conditions: for Change from baseline in volume voided per micturition, difference from placebo in LS means: Week 8; for Total incontinence episodes, change from baseline Week 8, mean / Total incontinence episodes, daily number, Week 8 mean / Total incontinence episodes, difference from placebo Week 8, difference in LS means / Urgency incontinence episodes, change from baseline Week 8, mean / Urgency incontinence episodes, daily number, Week 8 mean / Urgency incontinence episodes, difference from placebo Week 8, difference in LS means: OAB wet subjects
Source text: Part 2 was designed to continue to assess the safety and efficacy of concomitant dosing. […] Subjects in both Part 1 and Part 2 had the option of enrolling in a 1-year extension. Participants were required to keep a voiding diary, recording the occurrence of each strong urge, total incontinence, and urge incontinence episode. Efficacy data for Part 1 and Part 2 are summarized herein.
The total number of urgency incontinence episodes must have exceeded the total number of stress incontinence episodes for all subjects.
Conversely, a dose dependent effect on urge incontinence or total incontinence was not observed.

[1] = tested on: patients with overactive bladder; assay: Phase 2 safety data, adverse events (main study and 52-week extension)
Source text: A placebo group was included in the main study, and a group that received tolterodine monotherapy was included in the main study and in the extension.

With O=C(Nc1ccc(C[C@@H]2CC[C@H]([C@H](O)c3ccccc3)N2)cc1)[C@@H]1CCc2nccc(=O)n21 [Vibegron, (6S)—N-[4-[[(2S,5R)-5-[(R)-hydroxy(phenyl)methyl]pyrrolidin-2-yl]methyl]phenyl]-4-oxo-7,8-dihydro-6H-pyrrolo[1,2-a]pyrimidine-6-carboxamide] the “Urgency Episodes, change from baseline in average number of episodes, difference in LS means” value (men and women with OAB; 100 mg - 50 mg, week 8) was −0.48, the “Urgency incontinence, change from baseline in average number of episodes, difference in LS means” value (men and women with OAB; 100 mg - 50 mg, week 8) was 0.01 and the “Volume voided, change from baseline in average volume per void over one diary day, difference in LS means” value (men and women with OAB; 100 mg - 50 mg, week 8) was -5.69 mL. The “Micturitions, change from baseline in average number of micturitions, difference in LS means” value (men and women with OAB; 100 mg - Placebo, week 8) was −0.91, the “Total incontinence, change from baseline in average number of episodes, difference in LS means” value (men and women with OAB; 100 mg - Placebo, week 8) was −0.58 and the “Urgency Episodes, change from baseline in average number of episodes, difference in LS means” value (men and women with OAB; 100 mg - Placebo, week 8) was −1.24. The “Urgency incontinence, change from baseline in average number of episodes, difference in LS means” value (men and women with OAB; 100 mg - Placebo, week 8) was −0.71, the “Volume voided, change from baseline in average volume per void over one diary day, difference in LS means” value (men and women with OAB; 100 mg - Placebo, week 8) was 23.4 mL and the “Micturitions, change from baseline Week 8, mean” value (men and women with OAB; vibegron 3 mg) was −1.56. For the same compound, the “Micturitions, daily number, Week 8 mean” value (men and women with OAB; vibegron 3 mg) was 9.35, the “Micturitions, difference from placebo Week 8, difference in LS means” value (men and women with OAB; vibegron 3 mg) was −0.46 and the “Urgency episodes, change from baseline Week 8, mean” value (men and women with OAB; vibegron 3 mg) was −1.69. For the same compound, the “Urgency episodes, daily number, Week 8 mean” value (from here on “Urgency episodes, daily number”) (men and women with OAB; vibegron 3 mg) was 4.68, the “Urgency episodes, difference from placebo Week 8, difference in LS means” value (shortened to “Urgency episodes, difference”) (men and women with OAB; vibegron 3 mg) was −0.18 and the “Change from baseline in volume voided per micturition, difference from placebo in LS means” value (men and women with OAB; vibegron 3 mg once daily) was 15.99 mL. For the same compound, the “Total incontinence episodes, change from baseline Week 8, mean” value (“Total incontinence episodes, change” for short) (men and women with OAB; vibegron 3 mg) was −1.56, the “Total incontinence episodes, daily number, Week 8 mean” value (men and women with OAB; vibegron 3 mg) was 1.38 and the “Total incontinence episodes, difference from placebo Week 8, difference in LS means” value (from here on “Total incontinence episodes, difference”) (men and women with OAB; vibegron 3 mg) was −0.18. For the same compound, the “Urgency incontinence episodes, change from baseline Week 8, mean” value (shortened to “Urgency incontinence episodes, change”) (men and women with OAB; vibegron 3 mg) was −1.38, the “Urgency incontinence episodes, daily number, Week 8 mean” value (men and women with OAB; vibegron 3 mg) was 1.21 and the “Urgency incontinence episodes, difference from placebo Week 8, difference in LS means” value (men and women with OAB; vibegron 3 mg) was −0.28. The “Micturitions, change from baseline Week 8, mean” value (men and women with OAB; vibegron 15 mg) was −1.71, the “Micturitions, daily number, Week 8 mean” value (men and women with OAB; vibegron 15 mg) was 9.53 and the “Micturitions, difference from placebo Week 8, difference in LS means” value (men and women with OAB; vibegron 15 mg) was −0.45. For the same compound, the “Urgency episodes, change from baseline Week 8, mean” value (men and women with OAB; vibegron 15 mg) was −2.35, the “Urgency episodes, daily number” value (men and women with OAB; vibegron 15 mg) was 4.42 and the “Urgency episodes, difference” value (men and women with OAB; vibegron 15 mg) was −0.67. The “Change from baseline in volume voided per micturition, difference from placebo in LS means” value (men and women with OAB; vibegron 15 mg once daily) was 28.23 mL, the “Total incontinence episodes, change” value (men and women with OAB; vibegron 15 mg) was −1.99 and the “Total incontinence episodes, daily number, Week 8 mean” value (men and women with OAB; vibegron 15 mg) was 1.31. The “Total incontinence episodes, difference” value (men and women with OAB; vibegron 15 mg) was −0.48, the “Urgency incontinence episodes, change” value (men and women with OAB; vibegron 15 mg) was −1.81 and the “Urgency incontinence episodes, daily number, Week 8 mean” value (men and women with OAB; vibegron 15 mg) was 1.12. The “Urgency incontinence episodes, difference from placebo Week 8, difference in LS means” value (men and women with OAB; vibegron 15 mg) was −0.57, the “Micturitions, change from baseline Week 8, mean” value (men and women with OAB; vibegron 50 mg) was −1.87 and the “Micturitions, daily number, Week 8 mean” value (men and women with OAB; vibegron 50 mg) was 9.05. The “Micturitions, difference from placebo Week 8, difference in LS means” value (men and women with OAB; vibegron 50 mg) was −0.64, the “Urgency episodes, change from baseline Week 8, mean” value (men and women with OAB; vibegron 50 mg) was −2.36 and the “Urgency episodes, daily number” value (men and women with OAB; vibegron 50 mg) was 3.71. The “Urgency episodes, difference” value (men and women with OAB; vibegron 50 mg) was −0.76, the “Change from baseline in volume voided per micturition, difference from placebo in LS means” value (men and women with OAB; vibegron 50 mg once daily) was 29.05 mL and the “Total incontinence episodes, change” value (men and women with OAB; vibegron 50 mg) was −2.02. The “Total incontinence episodes, daily number, Week 8 mean” value (men and women with OAB; vibegron 50 mg) was 1.02, the “Total incontinence episodes, difference” value (men and women with OAB; vibegron 50 mg) was −0.60 and the “Urgency incontinence episodes, change” value (men and women with OAB; vibegron 50 mg) was −1.90. The “Urgency incontinence episodes, daily number, Week 8 mean” value (men and women with OAB; vibegron 50 mg) was 0.86, the “Urgency incontinence episodes, difference from placebo Week 8, difference in LS means” value (men and women with OAB; vibegron 50 mg) was −0.72 and the “Micturitions, change from baseline Week 8, mean” value (men and women with OAB; vibegron 100 mg) was −2.11. The “Micturitions, daily number, Week 8 mean” value (men and women with OAB; vibegron 100 mg) was 9.02, the “Micturitions, difference from placebo Week 8, difference in LS means” value (men and women with OAB; vibegron 100 mg) was −0.91 and the “Urgency episodes, change from baseline Week 8, mean” value (men and women with OAB; vibegron 100 mg) was −2.98. For the same compound, the “Urgency episodes, daily number” value (men and women with OAB; vibegron 100 mg) was 4.22, the “Urgency episodes, difference” value (men and women with OAB; vibegron 100 mg) was −1.24 and the “Change from baseline in volume voided per micturition, difference from placebo in LS means” value (men and women with OAB; vibegron 100 mg once daily) was 23.36 mL. For the same compound, the “Total incontinence episodes, change” value (men and women with OAB; vibegron 100 mg) was −2.26, the “Total incontinence episodes, daily number, Week 8 mean” value (men and women with OAB; vibegron 100 mg) was 1.12 and the “Total incontinence episodes, difference” value (men and women with OAB; vibegron 100 mg) was −0.58. The “Urgency incontinence episodes, change” value (men and women with OAB; vibegron 100 mg) was −2.05, the “Urgency incontinence episodes, daily number, Week 8 mean” value (men and women with OAB; vibegron 100 mg) was 0.84 and the “Urgency incontinence episodes, difference from placebo Week 8, difference in LS means” value (men and women with OAB; vibegron 100 mg) was −0.71. For the same compound, the “Accidental overdose, % subjects” value ([1]; 3 mg, first 12 weeks) was “(2.1) %”, the “Accidental overdose, n subjects” value ([1]; 3 mg, first 12 weeks) was 3 and the “Accidental overdose, % subjects” value ([1]; 15 mg, first 12 weeks) was “(4.5) %”. For the same compound, the “Accidental overdose, n subjects” value ([1]; 15 mg, first 12 weeks) was 6, the “Accidental overdose, % subjects” value ([1]; 50 mg, first 12 weeks) was “(2.7) %” and the “Accidental overdose, n subjects” value ([1]; 50 mg, first 12 weeks) was 4. For the same compound, the “Accidental overdose, % subjects” value ([1]; 100 mg, first 12 weeks) was “(4.2) %”, the “Accidental overdose, n subjects” value ([1]; 100 mg, first 12 weeks) was 11 and the “≥1 AE, n subjects” value ([1]; 100 mg, first 12 weeks) was 107. The frequency of injuries ([1]; human, in vivo) was 0.9% and the “increased exposure (potential risk)” value ([1]; human, in vivo) was roughly 2 fold.
